Test results: publication PMC6001238, “Iterative Chemical Engineering of Vancomycin Leads to Novel Vancomycin Analogs With a High in Vitro Therapeutic Index” (Frontiers in Microbiology, 2018)
In brackets after ≈: the same amount, converted by molar mass. Read-outs that look alike come from different tables or passages of the source.

What was measured:
[1] = test system: E. faecalis VSE 1; assay: MIC, broth microdilution, vancomycin-sensitive E. faecalis (VSE 1); format: cell-based, Enterococcus faecalis
Method in brief: (§1)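 Serial dilutions in broth, set up per CLSI guidance, gave the MIC. Where noted, test analogues or comparator antibiotics were combined with vancomycin at 10 μM final. Controls: ultrapure water, broth without inoculum.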

[2] = test system: E. faecalis VRE 6; assay: MIC, broth microdilution, vancomycin-resistant E. faecalis VRE 6 (VanA); format: cell-based, Enterococcus faecalis
Method in brief: as §1

[3] = test system: E. faecalis VRE 53; assay: MIC, broth microdilution, vancomycin-resistant E. faecalis VRE 53 (VanA); format: cell-based, Enterococcus faecalis
Method in brief: as §1

[4] = test system: E. faecalis VRE 29; assay: MIC, broth microdilution, vancomycin-resistant E. faecalis VRE 29 (VanA); format: cell-based, Enterococcus faecalis
Method in brief: as §1

[5] = test system: E. faecalis VRE 37; assay: MIC, broth microdilution, vancomycin-resistant E. faecalis VRE 37 (VanA); format: cell-based, Enterococcus faecalis
Method in brief: as §1

[6] = test system: Murine leukemia (L1210) cells; assay: Cytostatic activity, L1210 cell proliferation; format: cell-based; conditions: mean ± SD of three experiments; highest concentration tested 250 µM; 2 days; read-out: Toxicity (IC50) L1210
Method in brief: (§2)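 Readout: Coulter cell number after drug exposure at 37°C. Durations differ by line (L1210 2 days; CEM 3 days; HeLa 4 days). Stock suspension 300,000–500,000 cells/mL, diluted by mixing with compound. Endpoint: IC50 vs negative control.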

[7] = test system: human T-lymphocyte (CEM) cells; assay: Cytostatic activity, CEM cell proliferation; format: cell-based; conditions: mean ± SD of three experiments; highest concentration tested 250 µM; 3 days; read-out: Toxicity (IC50) CEM
Method in brief: as §2

[8] = test system: human cervix carcinoma (HeLa) cells; assay: Cytostatic activity, HeLa cell proliferation; format: cell-based; conditions: mean ± SD of three experiments; highest concentration tested 250 µM; 4 days; read-out: Toxicity (IC50) HeLa
Method in brief: as §2

[9] = test system: L1210, CEM and HeLa cell lines; assay: Cytostatic activity, average or summary over L1210, CEM and HeLa; format: cell-based
Method in brief: as §2

[10] = test system: S. aureus VSSA (ATCC 6538); assay: MIC, broth microdilution, vancomycin-sensitive S. aureus (VSSA/MSSA, ATCC 6538); format: cell-based, Staphylococcus aureus
Method in brief: as §1

[11] = test system: S. aureus VISA/HIP5827; assay: MIC, broth microdilution, vancomycin-intermediate S. aureus VISA HIP5827; format: cell-based, Staphylococcus aureus
Method in brief: as §1

[12] = test system: S. aureus VRSA; assay: MIC, broth microdilution, vancomycin-resistant S. aureus (VRSA); format: cell-based, Staphylococcus aureus
Method in brief: as §1

[13] = test system: MRSA KS2; assay: MIC, broth microdilution, MRSA KS2; format: cell-based, Staphylococcus aureus
Method in brief: as §1

[14] = test system: MRSA KS6; assay: MIC, broth microdilution, MRSA KS6; format: cell-based, Staphylococcus aureus
Method in brief: as §1

[15] = test system: MRSA KS89; assay: MIC, broth microdilution, MRSA KS89; format: cell-based, Staphylococcus aureus
Method in brief: as §1

[16] = test system: MRSA KS1; assay: MIC, broth microdilution, MRSA KS1; format: cell-based, Staphylococcus aureus
Method in brief: as §1

[17] = test system: 33 clinical VRE isolates; assay: MIC against a set of 33 clinical VRE isolates (range, MIC50, TI); format: cell-based, Enterococcus faecalis
Method in brief: as §1

[18] = test system: 24 clinical MRSA isolates; assay: MIC against a set of 24 clinical MRSA isolates (range, MIC50, TI); format: cell-based, Staphylococcus aureus
Method in brief: as §1

[19] = test system: Clostridium difficile ATJ ribotype 014/20; assay: MIC, plate drop assay, C. difficile ATJ ribotype 014/20; format: cell-based; conditions: for MIC-fold improvement vs. vancomycin: C. difficile ATJ ribotype 014/20
Method in brief: (§3)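 Twofold dilution series of test compounds were spotted onto C. difficile lawns in 0.4% BHI agar containing added calcium and magnesium salts. After overnight anaerobic incubation at 37°C, growth inhibition was scored by spot clearing; triplicate runs, ultrapure water negative control.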

[20] = test system: Clostridium difficile AIU ribotype 027; assay: MIC, plate drop assay, C. difficile AIU ribotype 027; format: cell-based; conditions: for MIC-fold improvement vs. vancomycin: C. difficile AIU ribotype 027
Method in brief: as §3

[21] = test system: VE 148 (VanB); assay: MIC, VanB-type VRE strain VE 148; format: cell-based, Enterococcus; conditions: VE 148, VanB; read-out: MIC
Method in brief: as §1

[22] = test system: VE 149 (VanB); assay: MIC, VanB-type VRE strain VE 149; format: cell-based, Enterococcus; conditions: VE 149, VanB; read-out: MIC
Method in brief: as §1

[23] = test system: VE 150 (VanB); assay: MIC, VanB-type VRE strain VE 150; format: cell-based, Enterococcus; conditions: VE 150, VanB; read-out: MIC
Method in brief: as §1

[24] = test system: VE 152 (VanB); assay: MIC, VanB-type VRE strain VE 152; format: cell-based, Enterococcus; conditions: VE 152, VanB; read-out: MIC
Method in brief: as §1

[25] = test system: VE 157 (VanB); assay: MIC, VanB-type VRE strain VE 157; format: cell-based, Enterococcus; conditions: VE 157, VanB; read-out: MIC
Method in brief: as §1

[26] = test system: VE 82 (VanC1); assay: MIC, VanC1-type VRE strain VE 82; format: cell-based, Enterococcus gallinarum; conditions: VE 82, VanC1; read-out: MIC
Method in brief: as §1

[27] = test system: MRSA; assay: Minimum bactericidal concentration against MRSA; format: cell-based, Staphylococcus aureus
Procedure: Plates were incubated overnight at 37°C and colony growth was inspected.

Which results are given for `CNC(CC(C)C)C(=O)NC1C(=O)NC(CC(N)=O)C(=O)NC2C(=O)NC3C(=O)NC(C(=O)NC(C(=O)NCCCNC(=O)c4ccc5cc(NS(=O)(=O)c6ccc(C(C)C)cc6)ccc5c4)c4cc(O)cc(O)c4-c4cc3ccc4O)C(O)c3ccc(c(Cl)c3)Oc3cc2cc(c3OC2OC(CO)C(O)C(O)C2OC2CC(C)(N)C(O)C(C)O2)Oc2ccc(cc2Cl)C1O` (stereo not drawn) [Vanc-66]?
MIC ([1]; Enterococcus faecalis VSE 1 (vancomycin-sensitive), read-out: MIC): 0.39 µM (≈ 0.724 µg/mL); MIC-fold improvement vs. vancomycin ([1]; VSE 1, ratio of MIC of vancomycin and MIC of analogue): 4; MIC ([2]; Enterococcus faecalis VRE 6 (vancomycin-resistant), read-out: MIC): 1.56 µM (≈ 2.9 µg/mL); MIC-fold improvement vs. vancomycin ([2]; VRE 6, ratio of MIC of vancomycin and MIC of analogue): 128; MIC ([3]; Enterococcus faecalis VRE 53 (vancomycin-resistant), read-out: MIC): 25 µM (≈ 46.4 µg/mL); MIC-fold improvement vs. vancomycin ([3]; VRE 53, ratio of MIC of vancomycin and MIC of analogue): 16; MIC ([4]; Enterococcus faecalis VRE 29 (vancomycin-resistant), read-out: MIC): 3.13 µM (≈ 5.81 µg/mL); MIC-fold improvement vs. vancomycin ([4]; VRE 29, ratio of MIC of vancomycin and MIC of analogue): 128; MIC ([5]; Enterococcus faecalis VRE 37 (vancomycin-resistant), read-out: MIC): 3.13 µM (≈ 5.81 µg/mL); MIC-fold improvement vs. vancomycin ([5]; VRE 37, ratio of MIC of vancomycin and MIC of analogue): 128; IC50 [6]: > 250 µM; IC50 [7]: 243 ± 10 µM; IC50 [8]: 78 ± 49 µM; IC50 ([9]; average IC50 used for TI in Table S5, >250 entered as 250, read-out: IC50): 190 µM; IC50 ([9]; average of L1210, CEM and HeLa, read-out: Toxicity (IC50) Average): 190 µM; MIC ([10]; Staphylococcus aureus VSSA, read-out: MIC): 0.78 µM (≈ 1.45 µg/mL); MIC-fold improvement vs. vancomycin ([10]; VSSA, ratio of MIC of vancomycin and MIC of analogue): 1; MIC ([11]; Staphylococcus aureus VISA/HIP5827, read-out: MIC): 0.78 µM (≈ 1.45 µg/mL); MIC-fold improvement vs. vancomycin ([11]; VISA/HIP5827, ratio of MIC of vancomycin and MIC of analogue): 8; MIC ([12]; Staphylococcus aureus VRSA, read-out: MIC): 0.39 µM (≈ 0.724 µg/mL); MIC-fold improvement vs. vancomycin ([12]; VRSA, ratio of MIC of vancomycin and MIC of analogue): 256; MIC-fold improvement vs. vancomycin ([13]; MRSA KS2, ratio of MIC of vancomycin and MIC of analogue): 2; MIC ([13]; Staphylococcus aureus MRSA KS2, read-out: MIC): 0.39 µM (≈ 0.724 µg/mL); MIC-fold improvement vs. vancomycin ([14]; MRSA KS6, ratio of MIC of vancomycin and MIC of analogue): 4; MIC ([14]; Staphylococcus aureus MRSA KS6, read-out: MIC): 0.20 µM (≈ 0.371 µg/mL); MIC-fold improvement vs. vancomycin ([15]; MRSA KS8, ratio of MIC of vancomycin and MIC of analogue): 2; MIC ([15]; Staphylococcus aureus MRSA KS8, read-out: MIC): 0.39 µM (≈ 0.724 µg/mL); MIC-fold improvement vs. vancomycin ([16]; MRSA KS1, ratio of MIC of vancomycin and MIC of analogue): 1; MIC ([16]; Staphylococcus aureus MRSA KS1, read-out: MIC): 0.78 µM (≈ 1.45 µg/mL); MIC Range ([17]; 33 clinical VRE isolates): 1.56 to 12.5 µM; TI (IC50/MIC50) ([17]; in vitro therapeutic index, VRE): 61; MIC50 ([17]; median MIC, 33 clinical VRE isolates, read-out: MIC50): 3.13 µM (≈ 5.81 µg/mL); MIC Range ([18]; 24 clinical MRSA isolates): 0.20 to 3.13 µM; TI (IC50/MIC50) ([18]; in vitro therapeutic index, MRSA): 238; MIC50 ([18]; median MIC, 24 clinical MRSA isolates, read-out: MIC50): 0.78 µM (≈ 1.45 µg/mL); MIC-fold improvement vs. vancomycin [19]: up to 45; MIC ([19]; C. difficile ATJ ribotype 014/20, plate drop assay): 0.78 µM (≈ 1.45 µg/mL); MIC-fold improvement vs. vancomycin ([19]; listed as Vanc- 66): 45; MIC-fold improvement vs. vancomycin [20]: ≤ 58; MIC ([20]; C. difficile AIU ribotype 027, plate drop assay): 0.78 µM (≈ 1.45 µg/mL); MIC-fold improvement vs. vancomycin ([20]; listed as Vanc- 66): 58; MIC [21]: 1.56 µM (≈ 2.9 µg/mL); MIC [22]: 0.78 µM (≈ 1.45 µg/mL); MIC [23]: 0.78 µM (≈ 1.45 µg/mL); MIC [24]: 0.78 µM (≈ 1.45 µg/mL); MIC [25]: 0.78 µM (≈ 1.45 µg/mL); MIC [26]: 0.78 µM (≈ 1.45 µg/mL); MBC relative to MIC [27]: MBC equaling their MIC values
